Measured values reported in patent publication US11446287B2, “Compounds and methods for EP300 or CBP modulation and indications therefor” (Opna Immuno-Oncology SA, priority 2019, dated 2022).

Target: T1, Recombinant human BRD4 containing dual bromodomains (BRD4-BD12 (1-477)) (Homo sapiens, UniProt O60885)
T1 construct: Recombinant human BRD4 containing dual bromodomains (BRD4-BD12 (1-477)); made in house; host or cells: E. coli BL21-CodonPlus (DE3), modified pET vector
Assay: BRD4 Alphascreen binding assay
Procedure, shortened: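 AlphaScreen proximity between Ni-chelate-bound BRD4-BD12 (1-477) and streptavidin-captured H4 K5/K8/K12/K16-acetyl peptide measured after 1 h room-temperature compound incubation and 30 min with 7.5 μg/ml beads. Buffer: 50 mM HEPES pH 7.5, 50 mM NaCl, 0.01% BSA, 0.01% Triton X-100; data plate-normalized and four-parameter fit for IC50.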

`CCOc1c(F)c(C(=O)O)c(F)c(OCC)c1-c1cn(-c2ccc(F)cc2F)c2ncc(-c3c(C)noc3C)cc12` [P-0296, 4-(1-(2,4-difluorophenyl)-5-(3,5-dimethylisoxazol-4-yl)-1H-pyrrolo[2,3-b]pyridin-3-yl)-3,5-diethoxy-2,6-difluorobenzoic acid] was tested. Which IC50 did it give?
Its IC50 is 8 to 1000 µM.

With `CCOc1cc(C(=O)O)c(F)c(OCC)c1-c1cn(-c2ccc(F)cc2F)c2ncc(-c3c(C)noc3C)cc12` [P-0297, 4-(1-(2,4-difluorophenyl)-5-(3,5-dimethylisoxazol-4-yl)-1H-pyrrolo[2,3-b]pyridin-3-yl)-3,5-diethoxy-2-fluorobenzoic acid] as the compound, how does the IC50 read?
Its IC50 is 8 to 1000 µM.

For `Cc1noc(C)c1-c1cnc2c(-c3ccccc3)cn(-c3c(OCC(F)(F)F)cc(C(=O)O)cc3OCC(F)(F)F)c2c1` [P-0298, 4-(6-(3,5-dimethylisoxazol-4-yl)-3-phenyl-1H-pyrrolo[3,2-b]pyridin-1-yl)-3,5-bis(2,2,2-trifluoroethoxy)benzoic acid], which IC50 is on record?
Its IC50 is 1 to 8 µM.

With `Cc1noc(C)c1-c1cnc2c(c1)c(-c1ccc(C(=O)O)cc1OC(C)C)cn2-c1cnn(CC(C)(C)O)c1` [P-0299, 4-(5-(3,5-dimethylisoxazol-4-yl)-1-(1-(2-hydroxy-2-methylpropyl)-1H-pyrazol-4-yl)-1H-pyrrolo[2,3-b]pyridin-3-yl)-3-isopropoxybenzoic acid] as the compound, how does the IC50 read?
Its IC50 is 1 to 8 µM.

How did the IC50 turn out when `Cc1noc(C)c1-c1cnc2c(c1)c(-c1ccc(C(=O)O)cc1OC(C)C)cn2-c1cnc(N2CCC2)nc1` [P-0300, 4-(1-(2-(azetidin-1-yl)pyrimidin-5-yl)-5-(3,5-dimethylisoxazol-4-yl)-1H-pyrrolo[2,3-b]pyridin-3-yl)-3-isopropoxybenzoic acid] was run?
The IC50 was 8 to 1000 µM.

`Cc1noc(C)c1-c1cnc2c(c1)c(-c1ccc(C(=O)O)cc1OC(C)C)cn2[C@H]1CCOC1` [P-0301, (S)-4-(5-(3,5-dimethylisoxazol-4-yl)-1-(tetrahydrofuran-3-yl)-1H-pyrrolo[2,3-b]pyridin-3-yl)-3-isopropoxybenzoic acid] was tested. Which IC50 did it give?
The IC50 was 8 to 1000 µM.

Which IC50 does the source give for `Cc1noc(C)c1-c1cnc2c(c1)c(-c1ccc(S(C)(=O)=O)cc1OC(C)C)cn2-c1ccccc1` [P-0302, 4-(3-(2-isopropoxy-4-(methylsulfonyl)phenyl)-1-phenyl-1H-pyrrolo[2,3-b]pyridin-5-yl)-3,5-dimethylisoxazole] here?
Its IC50 is 8 to 1000 µM.

`CCCn1nc(C(=O)O)c(N)c1-c1cn(-c2ccc(F)cc2F)c2ncc(-c3c(C)noc3C)cc12` [P-0303, 4-amino-5-(1-(2,4-difluorophenyl)-5-(3,5-dimethylisoxazol-4-yl)-1H-pyrrolo[2,3-b]pyridin-3-yl)-1-propyl-1H-pyrazole-3-carboxylic acid] was tested. Which IC50 did it give?
The IC50 was 8 to 1000 µM.

With `CCCn1nc(C(=O)O)c(NCC)c1-c1cn(-c2ccc(F)cc2F)c2ncc(-c3c(C)noc3C)cc12` [P-0304, 5-(1-(2,4-difluorophenyl)-5-(3,5-dimethylisoxazol-4-yl)-1H-pyrrolo[2,3-b]pyridin-3-yl)-4-(ethylamino)-1-propyl-1H-pyrazole-3-carboxylic acid] as the compound, how does the IC50 read?
The IC50 was 1 to 8 µM.

For `Cc1nnn(C)c1-c1cnc2c(c1)c(-c1ccc(C(=O)O)cc1OC(F)(F)F)cn2CC/C=C/C1CC1` [P-0305, (E)-4-(1-(4-cyclopropylbut-3-en-1-yl)-5-(1,4-dimethyl-1H-1,2,3-triazol-5-yl)-1H-pyrrolo[2,3-b]pyridin-3-yl)-3-(trifluoromethoxy)benzoic acid], which IC50 is on record?
Its IC50 is 8 to 1000 µM.

Which IC50 does the source give for `Cc1noc(C)c1-c1cnc2c(c1)c(-c1ccc(C(=O)O)cc1OCC(F)F)cn2-c1ccncc1Cl` [P-0306, 4-(1-(3-chloropyridin-4-yl)-5-(3,5-dimethylisoxazol-4-yl)-1H-pyrrolo[2,3-b]pyridin-3-yl)-3-(2,2-difluoroethoxy)benzoic acid] here?
The IC50 was 8 to 1000 µM.

`Cc1noc(C)c1-c1cnc2c(c1)c(-c1ccc(C(=O)O)cc1OC(F)(F)F)cn2-c1ccccc1Cl` [P-0307, 4-(1-(2-chlorophenyl)-5-(3,5-dimethylisoxazol-4-yl)-1H-pyrrolo[2,3-b]pyridin-3-yl)-3-(trifluoromethoxy)benzoic acid] was tested. Which IC50 did it give?
Its IC50 is 1 to 8 µM.

Which IC50 does the source give for `Cc1noc(C)c1-c1cnc2c(c1)c(-c1ccc(C(=O)O)cc1OC(F)(F)F)cn2-c1ccccc1C1CC1` [P-0308, 4-(1-(2-cyclopropylphenyl)-5-(3,5-dimethylisoxazol-4-yl)-1H-pyrrolo[2,3-b]pyridin-3-yl)-3-(trifluoromethoxy)benzoic acid] here?
Its IC50 is 1 to 8 µM.

How did the IC50 turn out when `Cc1noc(C)c1-c1cnc2c(c1)c(-c1ccc(C(=O)O)cc1OC(F)(F)F)cn2-c1ccccc1C#N` [P-0309, 4-(1-(2-cyanophenyl)-5-(3,5-dimethylisoxazol-4-yl)-1H-pyrrolo[2,3-b]pyridin-3-yl)-3-(trifluoromethoxy)benzoic acid] was run?
The IC50 was 8 to 1000 µM.

With `Cc1cc(C#N)ccc1-n1cc(-c2ccc(C(=O)O)cc2OC(F)(F)F)c2cc(-c3c(C)noc3C)cnc21` [P-0310, 4-(1-(4-cyano-2-methylphenyl)-5-(3,5-dimethylisoxazol-4-yl)-1H-pyrrolo[2,3-b]pyridin-3-yl)-3-(trifluoromethoxy)benzoic acid] as the compound, how does the IC50 read?
Its IC50 is 1 to 8 µM.

With `COc1ccc(-n2cc(-c3ccc(C(=O)O)cc3OC(F)(F)F)c3cc(-c4c(C)noc4C)cnc32)c(F)c1` [P-0311, 4-(5-(3,5-dimethylisoxazol-4-yl)-1-(2-fluoro-4-methoxyphenyl)-1H-pyrrolo[2,3-b]pyridin-3-yl)-3-(trifluoromethoxy)benzoic acid] as the compound, how does the IC50 read?
Its IC50 is 1 to 8 µM.

Which IC50 does the source give for `C=C(C)c1ccccc1-n1cc(-c2ccc(C(=O)O)cc2OC(F)(F)F)c2cc(-c3c(C)noc3C)cnc21` [P-0312, 4-(5-(3,5-dimethylisoxazol-4-yl)-1-(2-(prop-1-en-2-yl)phenyl)-1H-pyrrolo[2,3-b]pyridin-3-yl)-3-(trifluoromethoxy)benzoic acid] here?
The IC50 was 8 to 1000 µM.

How did the IC50 turn out when `Cc1noc(C)c1-c1cnc2c(c1)c(-c1ccc(C(=O)O)cc1OC(F)(F)F)cn2-c1ccc(C#N)cc1` [P-0313, 4-(1-(4-cyanophenyl)-5-(3,5-dimethylisoxazol-4-yl)-1H-pyrrolo[2,3-b]pyridin-3-yl)-3-(trifluoromethoxy)benzoic acid] was run?
Its IC50 is 1 to 8 µM.

Which IC50 does the source give for `Cc1noc(C)c1-c1cnc2c(c1)c(-c1ccc(C(=O)O)cc1OC(F)(F)F)cn2-c1ccc(C(C)(C)O)cc1` [P-0314, 4-(5-(3,5-dimethylisoxazol-4-yl)-1-(4-(2-hydroxypropan-2-yl)phenyl)-1H-pyrrolo[2,3-b]pyridin-3-yl)-3-(trifluoromethoxy)benzoic acid] here?
Its IC50 is 0.0001 to 1 µM.

With `Cc1noc(C)c1-c1cnc2c(c1)c(-c1ccc(C(=O)O)cc1OC(F)(F)F)cn2-c1ccsc1` [P-0315, 4-(5-(3,5-dimethylisoxazol-4-yl)-1-(thiophen-3-yl)-1H-pyrrolo[2,3-b]pyridin-3-yl)-3-(trifluoromethoxy)benzoic acid] as the compound, how does the IC50 read?
Its IC50 is 0.0001 to 1 µM.
